The source of these data is patent US20130116323A1, “METHODS OF IMPROVING OR PRESERVING LUNG FUNCTION IN A PATIENT WITH A PULMONARY DISORDER” (The Leland Stanford Junior University, priority 2011, published 2013).

Entries after “also recorded” stand apart in the source; their conditions may differ.

For data set [1] the following is noted: effects counter to those reported for NAC; cited from earlier work.
For data set [2] the following is noted: compared with the stable cysteine disulfide; cited from earlier work.
The test system of a further data set is ARDS and ALI. The note with it: randomized controlled trials; cited from earlier work.
The subject of data set [3] is CF patients. Kind of data set: Phase II trial in CF patients: initial 16 subject safety cohort. The data set is classed as in vivo, human. The note with it: first 16 subject safety cohort. As to the method:
(§1) A 6-month multi-center phase II clinical trial was performed to evaluate the effect of N-acetylcysteine (PharmaNAC®, BioAdvantex Pharma, Missisauga, Ontario Canada)) 900 mg effervescent tablets taken orally 3 times a day on airway inflammation in CF patients. 70 subjects were randomized to placebo or study drug. Randomization was stratified by study site, baseline FEV1, age, gender, chronic azithromycin, inhaled aztreonam for inhalation solution (AZLI) or tobramycin inhalation solution, USP (TOBI®, Novartis) and ibuprofen use. A cohort of 16 subjects served as an initial safety cohort.
General objectives of the study included determination of safety, tolerability and efficacy of NAC versus placebo at 0 week, 6 weeks, 12 week and 24 week time points. More specific objectives included evaluation of: (a) effect of NAC on number of pulmonary and sinus exacerbations and antibiotic use, (b) effect of NAC on lung inflammation; (c) effect of NAC on pulmonary function; (d) effect of NAC on weight; (e) effect of NAC on quality of life (QOL) and (f) whether NAC causes pulmonary hypertension if used chronically in high doses.
Effect of long-term treatment with NAC in promoting the development of pulmonary hypertension (PH) in subjects with cystic fibrosis is examined. A panel of clinical and molecular studies, performed at 6-week intervals, is assessed. […]

Data set [4] deals with CF patients. Kind of data set: Phase II trial in CF patients: pulmonary and sinus exacerbations and new antibiotic use. The data set is classed as in vivo, human. As to conditions: 900 mg orally 3 times a day, 24 weeks, versus placebo. As for the experimental part: A 6-month multi-center phase II clinical trial was performed to evaluate the effect of N-acetylcysteine (PharmaNAC®, BioAdvantex Pharma, Missisauga, Ontario Canada)) 900 mg effervescent tablets taken orally 3 times a day on airway inflammation in CF patients. 70 subjects were randomized to placebo or study drug. Randomization was stratified by study site, baseline FEV1, age, gender, chronic azithromycin, inhaled aztreonam for inhalation solution (AZLI) or tobramycin inhalation solution, USP (TOBI®, Novartis) and ibuprofen use. A cohort of 16 subjects served as an initial safety cohort. […]
(§2) The primary efficacy endpoint in this study were sputum elastase activity as measured by ELISA assay reflecting lung inflammation. […]
(§3) The effect of NAC on chronic airway inflammation was measured by examining the change in the log10 of neutrophil elastase activity measured in sputum from enrollment to the end of the trial. The effect of NAC on neutrophil recruitment, lung function, pulmonary and sinus exacerbations, and on weight of CF subjects was measured by: change in the sputum neutrophil count, change in IL-8 in sputum and plasma, change in GSH in whole blood, incidence of pulmonary exacerbations, number of and time to first pulmonary exacerbation, incidence and number of antibiotics for any reason, and change in FEV1. Patient-reported outcomes (PRO) were measured by the CFQ-R and CFRD instruments.

The test system of data set [5] is Human Neurophil Elastase (HNE). Kind of data set: Phase II trial in CF patients: sputum neutrophil elastase activity (airway inflammation). The note with it: 900 mg orally 3 times a day, 24 weeks, versus placebo. Type of data set: in vivo. As for the experimental part: A 6-month multi-center phase II clinical trial was performed to evaluate the effect of N-acetylcysteine (PharmaNAC®, BioAdvantex Pharma, Missisauga, Ontario Canada)) 900 mg effervescent tablets taken orally 3 times a day on airway inflammation in CF patients. 70 subjects were randomized to placebo or study drug. Randomization was stratified by study site, baseline FEV1, age, gender, chronic azithromycin, inhaled aztreonam for inhalation solution (AZLI) or tobramycin inhalation solution, USP (TOBI®, Novartis) and ibuprofen use. A cohort of 16 subjects served as an initial safety cohort. The primary efficacy endpoint in this study were sputum elastase activity as measured by ELISA assay reflecting lung inflammation. […] The effect of NAC on chronic airway inflammation was measured by examining the change in the log10 of neutrophil elastase activity measured in sputum from enrollment to the end of the trial. The effect of NAC on neutrophil recruitment, lung function, pulmonary and sinus exacerbations, and on weight of CF subjects was measured by: change in the sputum neutrophil count, change in IL-8 in sputum and plasma, change in GSH in whole blood, incidence of pulmonary exacerbations, number of and time to first pulmonary exacerbation, incidence and number of antibiotics for any reason, and change in FEV1. Patient-reported outcomes (PRO) were measured by the CFQ-R and CFRD instruments.

The conditions of data set [6]: compared with cysteine; cited from earlier work.
Data set [7] relates to CF patients. Kind of data set: Phase II randomized placebo-controlled trial of oral NAC in CF patients: lung function by spirometry. Type of data set: in vivo, human. As to the method: A 24-week (6-month) multi-center large clinical trial was designed with randomization stratified to improve balance of baseline characteristics between treatment groups, and to improve precision between group treatment effects.
as §1
General objectives of the study included determination of safety, tolerability and efficacy of NAC versus placebo at 0 week, 6 weeks, 12 week and 24 week time points. […]
as §2, §3

Another data set has as its system patients with COPD. The note with it: 600 mg oral NAC per day, COPD patients with at least two exacerbations per year for 2 years; cited from earlier work.
Another data set concerns patients with IPF. The note with it: 600 mg NAC three times daily added to prednisone plus azothioprine, one year, versus standard therapy alone; cited from earlier work.
The mark [8] stands for this setting: 900 mg orally 3 times a day, 6-month period, versus placebo.

Turning to `CC(=O)N[C@@H](CSSC[C@H](NC(C)=O)C(=O)O)C(=O)O` [oxidized form of NAC, di-N-acetylcysteine], in data set [1], the “bioactive dose relative to NAC” value was 10-100 fold less than NAC.
Consider `CC(=O)N[C@@H](CS)C(=O)O` [NAC, N-acetylcysteine], for which the “solubility relative to cystine” value in [2] is “much more soluble”. Further, the early mortality entry in the data set on ARDS and ALI was “no effect”. In the data set with CF patients [3], the adverse events entry is listed as “No adverse events” and the pulmonary hypertension entry is on record as “no pulmonary hypertension”. Moreover, in the data set with CF patients [4], the new antibiotic prescriptions result is “No difference was detected” and the “number of pulmonary or sinus exacerbations” value was “No difference was detected”. In addition, in data set [5], the “airways inflammation, measured by HNE” value was “No difference was detected”. In addition, the “stability relative to cysteine” value in data set [6] is “about 10 times”. Moreover, in the data set with CF patients [7] (900 mg effervescent tablets orally 3 times a day, 6-month trial period, versus placebo (P=0.02)), the “FEV1 (lung function) versus baseline” value is reported as “maintained baseline FEV1; also recorded: maintained lung function”. Further, in the data set with CF patients [7] (setting [8]), the “FEF (lung function)” value is “maintained lung function” and the “FVC (lung function)” value is “maintained lung function”. Also, in the data set with patients with COPD, the “preventing deterioration in lung function and exacerbations” value is reported as “ineffective”. In the data set on patients with IPF, the “deterioration of DLCO” value is on record as “slows the deterioration” and the “deterioration of vital capacity” value is reported as “slows the deterioration”.
